# Structures can show the parent of a compound that is named as a salt. Where two headings read alike, the source gives them in different places.
# How the values were obtained:
# [1] = Storage stability of tetracyclines in cream-like and comparison formulations; conditions: for tetracycline activity remaining: after two weeks, 20160 min; for tetracycline activity remaining / stability of comparison formulation: room temperature; for oxytetracycline hydrochloride percent of initial activity: Example XXXIX cream
# [2] = In vitro human skin penetration of labeled (H^3) tetracycline hydrochloride; conditions: cream-like preparation vs 0.5% in 75% propylene glycol and 0.05% in pH 6.6 buffer (both saturated solutions)
# [3] = Decomposition of aspirin vs. time at 80° C in vehicle, with extrapolated shelf-life; format: physicochemical; conditions: for shelf-life at 25° C: extrapolated from 80° C
# Description: A formulation is prepared having 0.5 g. aspirin and 0.05% BHA per 1.0 g. polyethylene glycol-750-dimethyl ether, and stored at 80° C. Decomposition of the aspirin is measured vs. time. The time for 10% decomposition is 27 hours. This reflects approximately a 30 month shelf-life at 25° C. This can be compared to a published report[Jun et al., J. Pharm. Sec.
# The time for 10% decomposition (t90) is 24 hours. This reflects approximately a 30 month shelf-life at 25° C. Thus, this Example describes the preparation of a liquid aspirin formulation which is stable for long periods of time at or about room temperature.
# Sciences, 53, 815-818 (July, 1964).
# [4] = in several polyethylene glycols, cited from earlier work
# [5] = Palmitic acid diethanolamide stability at 80° C; format: physicochemical; conditions: under air, 14 days
# Description: The formulation remains undecomposed after 14 days. The same result is attained with a formulation which additionally contains 0.05% BHA.
# [6] = Oleic acid diethanolamide activity after storage at 80° C, with extrapolated shelf time; format: physicochemical
# lipase = experiment: In vitro lipase inhibition; format: biochemical
# [7] = General chemical stability of prostaglandins; format: physicochemical; conditions: with dimethyl ether of polyethylene glycol 550, extended period above room temperature
# Description: See, for example, Brummer J. Pharm. Pharmac. 23, 804 (1971), and Karim et al., European J. Pharmacol. 4, 416 (1968). It would, therefore, be desirable to have a prostaglandin preparation wherein the prostaglandin material is stabilized by the vehicle material.
# The above and still further objects, features, and advantages of the present invention are achieved, in accordance therewith, by admixing a pharmaceutically active quantity of an active medicament material with a dialkylated mono- or poly-alkylene glycol optionally including an antioxidant for the glycol vehicle.
# [8] = PGE2 activity after storage at 80° C in polyethylene glycol-550-dimethyl ether; format: physicochemical; conditions: 1 mg PGE2, 0.01% edetic acid, 0.01% BHA, 0.01% BHT per ml polyethylene glycol-550-dimethyl ether, nitrogen, 18 days
# Description: The following formulations are prepared having 1 mg. PGE2 per ml. of polyethylene glycol-550-dimethyl ether, and the additional material(s) as set forth below.
# A formulation is prepared having 1 mg. PGE2 , 0.01% edetic acid, 0.01% BHA and 0.01% BHT per ml. polyethylene glycol-550-dimethyl ether, and sealed in an ampule under nitrogen atmosphere.
# [9] = PGE2 activity after storage at 60° C in glyme or triethylene glycol-dimethyl ether; format: physicochemical; conditions: nitrogen
# Description: A formulation is prepared having 1 mg. PGE2 per ml. 1,2-dimethoxyethane. After 12 days storage at 60° C. under a nitrogen atmosphere, the PGE2 assays 100% of its initial activity.
# A formulation is prepared having 1 mg. PGE2 per ml. of triethylene glycol-dimethyl ether. After 5 days storage at 60° C. under a nitrogen atmosphere, the PGE2 assays 100% of its initial activity.
# [10] = literature: Brummer 1971; Karim et al. 1968; cited from earlier work
# [11] = PGE2 activity after storage in polyethylene glycol comparison formulations; format: physicochemical
# Description: By comparison, 1 mg. PGE2 and 1 ml. polyethylene glycol 400 assays 54% PGE2 activity after storage for two months at 45° C.; 0.2 mg. PGE2 in 2.7598 g. polyethylene glycol 4,000 assays 70% PGE2 activity after storage for 6 months at room temperature and 72% PGE2 activity after storage for 3 months at 45° C.; a suppository of 0.2 mg. PGE2 in 2.7298 g. base comprising 2% polyethylene glycol 4,000 and 98% polyethylene glycol 1,000 assays 62% PGE2 activity after storage for six months at room temperature; a formulation of PGE2 in polyethylene glycol 400 assays 73% PGE2 activity after 4 months at room temperature; and a formulation of PGE2 in polyethylene glycol 4000 assays 82% PGE2 activity after 5 months at room temperature.
# [12] = Chloramphenicol activity after storage at 80° C, with extrapolated shelf-life; conditions: for chloramphenicol percent of initial activity: 80° C
# [13] = Nystatin activity after storage at 80° C; format: physicochemical; conditions: for nystatin percent of initial activity: 0.5 mg/ml in polyethylene glycol-350-dimethyl ether, 0.05% BHA, under air
# Description: Thus, the polyethylene glycol-350-dimethyl ether has a significant stabilizing effect on nystatin when compared to polyethylene glycol 400.
# [14] = 0.05% tetracycline hydrochloride in pH 6.6 buffer
# [15] = 0.5% tetracycline hydrochloride in 75% propylene glycol
# [16] = polyethylene glycol 400 in place of dialkylated vehicle, 2 days
smiles,measurement,setting,value
CN(C)C1C(=O)C(C(N)=O)=C(O)C2(O)C(=O)C3=C(O)c4c(O)cccc4C(C)(O)C3CC12 (stereo not drawn) [tetracycline hydrochloride],tetracycline activity remaining,[1]; [14],less than 50%
same,stability of comparison formulation,[1]; [14],highly unstable
same,tetracycline activity remaining,[1]; [15],less than 50%
same,stability of comparison formulation,[1]; [15],highly unstable
same,tetracycline hydrochloride percent of initial activity,"[1]; Example XXXVIII cream: 1.0% drug, 79.0% polyethylene glycol-350-dimethyl ether, 20.0% polyethylene glycol-6000-dimethyl ether, 0.05% BHA, 4 months, 45° C, 175200 min",98%
same,skin penetration,[2],equivalent skin penetration
"CC(=O)Oc1ccccc1C(=O)O [aspirin, acetylsalicylic acid]",time for 10% decomposition (t90),"[3]; 100 mg aspirin per ml polyethylene glycol-350-dimethyl ether, under air, 80° C",24 h
same,time for 10% decomposition,"[3]; 0.5 g aspirin and 0.05% BHA per 1.0 g polyethylene glycol-750-dimethyl ether, 80° C",27 h
same,shelf-life at 25° C,"[3]; polyethylene glycol-350-dimethyl ether, under air",~30 month
same,shelf-life at 25° C,[3]; polyethylene glycol-750-dimethyl ether with 0.05% BHA,~30 month
same,time for 10% decomposition,"[4]; 80° C, Jun et al. 1972",2 h
same,shelf-life at 25° C,[4]; from published report Jun et al. 1972,3.5 months
CCCCCCCCCCCCCCCC(=O)N(CCO)CCO [palmitic acid diethanolamide],decomposition after storage,[5]; 5 mg/ml in polyethylene glycol-350-dimethyl ether with 0.05% BHA,undecomposed
same,decomposition after storage,[5]; 5 mg/ml in polyethylene glycol-350-dimethyl ether,undecomposed
CCCCCCCC/C=C\CCCCCCCC(=O)N(CCO)CCO [oleic acid diethanolamide],oleamide percent of initial activity,"[6]; 2 mg/ml in 1,2-dimethoxyethane with 0.025% BHT and 0.025% BHA, 5 weeks, 80° C, 50400 min",96%
same,shelf time at 25° C,"[6]; approximately, 1,2-dimethoxyethane with BHT and BHA, extrapolated from 80° C",3-4 years
same,lipase inhibition,lipase,inhibits lipase
"CCCCC[C@H](O)/C=C/[C@H]1[C@H](O)CC(=O)[C@@H]1C/C=C\CCCC(=O)O [PGE2, 11α,15α-dihydroxy-9-keto-5,13-prostadienoic acid]",chemical stability after storage,[7],high degree of chemical stability
same,PGE2 percent of initial activity,[8],100%
same,PGE2 percent of initial activity,"[9]; 1 mg/ml in 1,2-dimethoxyethane, 12 days",100%
same,PGE2 percent of initial activity,"[9]; 1 mg/ml in triethylene glycol-dimethyl ether, 5 days",100%
same,chemical stability,[10],relatively unstable
same,PGE2 activity after storage,"[11]; 0.2 mg PGE2 in 2.7598 g polyethylene glycol 4,000, 3 months, 45° C, 129600 min",72%
same,PGE2 activity after storage,"[11]; 0.2 mg PGE2 in 2.7598 g polyethylene glycol 4,000, 6 months, room temperature, 259200 min",70%
same,PGE2 activity after storage,"[11]; 1 mg PGE2 and 1 ml polyethylene glycol 400, two months, 45° C, 86400 min",54%
same,PGE2 activity after storage,"[11]; in polyethylene glycol 400, 4 months, room temperature, 172800 min",73%
same,PGE2 activity after storage,"[11]; in polyethylene glycol 4000, 5 months, room temperature, 216000 min",82%
same,PGE2 activity after storage,"[11]; suppository, 0.2 mg PGE2 in 2.7298 g base (2% polyethylene glycol 4,000, 98% polyethylene glycol 1,000), six months, room temperature, 259200 min",62%
CN(C)C1C(=O)C(C(N)=O)=C(O)C2(O)C(=O)C3=C(O)c4c(O)cccc4C(C)(O)C3C(O)C12 (stereo not drawn) [oxytetracycline hydrochloride],oxytetracycline hydrochloride percent of initial activity,"[1]; 2 months, 45° C, 86400 min",92%
same,oxytetracycline hydrochloride percent of initial activity,"[1]; 3 months, 37° C, 129600 min",92%
same,oxytetracycline hydrochloride percent of initial activity,"[1]; 4 months, 45° C, 172800 min",75%
O=C(N[C@H](CO)[C@H](O)c1ccc([N+](=O)[O-])cc1)C(Cl)Cl [chloramphenicol],chloramphenicol percent of initial activity,"[12]; 0.5 mg/ml in polyethylene glycol-350-dimethyl ether, 0.05% BHA, under air, 2 days",95%
same,chloramphenicol percent of initial activity,"[12]; 0.5 mg/ml in polyethylene glycol-350-dimethyl ether, 0.05% BHA, under air, 5 days",66%
same,chloramphenicol percent of initial activity,[12]; [16],50%
same,chloramphenicol percent of initial activity,"[12]; polyethylene glycol 400 in place of dialkylated vehicle, 5 days",less than 20%
same,shelf-life at room temperature,"[12]; polyethylene glycol-350-dimethyl ether, 0.05% BHA, extrapolated from 80° C",at least 1 year
C[C@@H]1[C@H](O)[C@@H](C)/C=C/C=C/CC/C=C/C=C/C=C/C=C/C(O[C@H]2O[C@H](C)[C@@H](O)[C@H](N)[C@@H]2O)CC2O[C@](O)(CC(O)C(O)CCC(O)CC(O)CC(O)CC(=O)O[C@H]1C)CC(O)C2C(=O)O (stereo partly drawn) [nystatin],nystatin percent of initial activity,[13]; 2 days,56%
same,nystatin percent of initial activity,[13]; 5 days,less than 40%
same,decomposition (loss of activity),[13]; [16],total decomposition

# Source: patent US4011313A, “Medicament preparations” (Syntex (U.S.A.) Inc., priority 1975, dated 1977)
